The source of these data is patent US12110295B2, “WD40 repeat domain protein 5 (WDR5) degradation/disruption compounds and methods of use” (Icahn School of Medicine at Mount Sinai, priority 2018, dated 2024).

Molecules are shown by their SMILES.

For the test, the target named is WDR5 (Homo sapiens, UniProt P61964). Kind of test: Screening of putative WDR5 degraders by Western blot in MV4;11 and/or MIAPACA2 cells. The following applies: summary of screening, FIGS. 6-10. Format: cell-based. Also noted: After WDR5 degrader treatment, cells were collected and lysed; endogenous in cells; host or cells: MV4;11 and/or MIAPACA2. In a few lines: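 MV4;11 (1×10^6/well) or MIAPACA2 (1×10^5/well) cells treated 18 h with compound at paired doses between 0.1 and 10 μM, DMSO as control. Total lysates immunoblotted for WDR5 with vinculin, tubulin or GAPDH loading controls; fluorescent secondary detection.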
On the technique in general: Immunoblotting shows a protein as a band on a membrane.
As to `Cc1ncsc1-c1ccc(CNC(=O)[C@@H]2C[C@@H](O)CN2C(=O)[C@@H](NC(=O)COCC(=O)N2CCN(c3ncc(-c4cc(NC(=O)c5ccc(F)cc5C(F)(F)F)c(N5C[C@@H](C)N(C)[C@@H](C)C5)cc4F)cn3)CC2)C(C)(C)C)cc1` [XF078-99, (2S,4R)-1-((S)-2-(2-(2-(4-(5-(2-fluoro-5-(4-fluoro-2-(trifluoromethyl)benzamido)-4-((3S,5R)-3,4,5-trimethylpiperazin-1-yl)phenyl)pyrimidin-2-yl)piperazin-1-yl)-2-oxoethoxy)acetamido)-3,3-dimethylbutanoyl)-4-hydroxy-N-(4-(4-methylthiazol-5-yl)benzyl)pyrrolidine-2-carboxamide], the “effective degradation of WDR5 in MV4;11 and/or MIAPACA2 cells” value is “able to effectively degrade WDR5”.
As for `Cc1ncsc1-c1ccc(CNC(=O)[C@@H]2C[C@@H](O)CN2C(=O)[C@@H](NC(=O)CCCCCCCCCC(=O)N2CCN(c3ncc(-c4cc(NC(=O)c5ccc(F)cc5C(F)(F)F)c(N5C[C@@H](C)N(C)[C@@H](C)C5)cc4F)cn3)CC2)C(C)(C)C)cc1` [XF078-115, (2S,4R)-1-((S)-2-(11-(4-(5-(2-fluoro-5-(4-fluoro-2-(trifluoromethyl)benzamido)-4-((3S,5R)-3,4,5-trimethylpiperazin-1-yl)phenyl)pyrimidin-2-yl)piperazin-1-yl)-11-oxoundecanamido)-3,3-dimethylbutanoyl)-4-hydroxy-N-(4-(4-methylthiazol-5-yl)benzyl)pyrrolidine-2-carboxamide], the entry is “able to effectively degrade WDR5”.
To `Cc1ncsc1-c1ccc(CNC(=O)[C@@H]2C[C@@H](O)CN2C(=O)[C@@H](NC(=O)COCCNC(=O)CCC(=O)N2CCN(c3ncc(-c4cc(NC(=O)c5c[nH]c(=O)cc5C(F)(F)F)c(N5C[C@@H](C)N(C)[C@@H](C)C5)cc4F)cn3)CC2)C(C)(C)C)cc1` [XF078-61, N-(4-fluoro-5-(2-(4-(4-((2-(2-(((S)-1-((2S,4R)-4-hydroxy-2-((4-(4-methylthiazol-5-yl)benzyl)carbamoyl)pyrrolidin-1-yl)-3,3-dimethyl-1-oxobutan-2-yl)amino)-2-oxoethoxy)ethyl)amino)-4-oxobutanoyl)piperazin-1-yl)pyrimidin-5-yl)-2-((3S,5R)-3,4,5-trimethylpiperazin-1-yl)phenyl)-6-oxo-4-(trifluoromethyl)-1,6-dihydropyridine-3-carboxamide] belongs “able to effectively degrade WDR5”; to `Cc1ncsc1-c1ccc(CNC(=O)[C@@H]2C[C@@H](O)CN2C(=O)[C@@H](NC(=O)CCOCCOCCOCCOCCNC(=O)CCC(=O)N2CCN(c3ccc(-c4cc(NC(=O)c5c[nH]c(=O)cc5C(F)(F)F)c(N5C[C@@H](C)N(C)[C@@H](C)C5)cc4F)cn3)CC2)C(C)(C)C)cc1` [XF067-146, N-(4-fluoro-5-(6-(4-((S)-3-((2S,4R)-4-hydroxy-2-((4-(4-methylthiazol-5-yl)benzyl)carbamoyl)pyrrolidine-1-carbonyl)-2,2-dimethyl-5,21-dioxo-8,11,14,17-tetraoxa-4,20-diazatetracosan-24-oyl)piperazin-1-yl)pyridin-3-yl)-2-((3S,5R)-3,4,5-trimethylpiperazin-1-yl)phenyl)-6-oxo-4-(trifluoromethyl)-1,6-dihydropyridine-3-carboxamide], “able to effectively degrade WDR5”.
As for `Cc1ncsc1-c1ccc(CNC(=O)[C@@H]2C[C@@H](O)CN2C(=O)[C@@H](NC(=O)CCCCCCCC(=O)N2CCN(c3ncc(-c4cc(NC(=O)c5ccc(F)cc5C(F)(F)F)c(N5C[C@@H](C)N(C)[C@@H](C)C5)cc4F)cn3)CC2)C(C)(C)C)cc1` [XF078-113, (2S,4R)-1-((S)-2-(9-(4-(5-(2-fluoro-5-(4-fluoro-2-(trifluoromethyl)benzamido)-4-((3S,5R)-3,4,5-trimethylpiperazin-1-yl)phenyl)pyrimidin-2-yl)piperazin-1-yl)-9-oxononanamido)-3,3-dimethylbutanoyl)-4-hydroxy-N-(4-(4-methylthiazol-5-yl)benzyl)pyrrolidine-2-carboxamide], the entry is “able to effectively degrade WDR5”.
